Series [1] concerns mouse and human MPNST cell lines. The note with it: cited from earlier work.
The conditions of series [2]: mice; dosed orally (b5); listed as compound 21; cited from earlier work.
Series [3] concerns mouse embryonic fibroblasts. The note with it: cited from earlier work.
Series [4] deals with human MPNST cells subcutaneously xenografted into mice. The note with it: cited from earlier work.
A further series relates to primary mouse GBM cells. The following applies: screen of 200,000 synthetic compounds; cited from earlier work.
Series [5] can be described thus: Co-treatment of 9 with sublethal FK866. It counts as cell-based. The method, then:
(§1) These observations, taken together, support the hypothesis that the activity of compound 9 depends on NAMPT and NMNAT1.
(§2) In 96-well assay plates (Corning #2903), 2,000 cells were plated per well in 100 μL of medium and allowed to adhere overnight. The next day, compounds or Nam suspended in DMSO were dispensed to the assayed wells using a D300e Digital Dispenser (Tecan). All wells were normalized to 0.5% DMSO. 72 hours after incubation at 37 °C in 5% CO2, cell viability was assayed using an ATP-based luminescent viability assay, CellTiter-Glo (Promega #G8462). CellTiter-Glo substrate was mixed 1:1 with phosphate-buffered saline (PBS) supplemented with 1% Triton X-100, and 40 μL of this mixture was added to the assay wells. After the plates were shaken on a microplate shaker for 10 minutes at room temperature, luminescence was recorded using a Synergy 2 Microplate Reader or Cytation 5 plate reader (BioTek). In Prism 9 software (GraphPad), ten-point dose response curves were plotted with baseline-correction to the vehicle control well, and IC50 values were calculated by curve fitting using asymmetric (five parameter), least squares fit.

The subject of another series is resistant iHCT116 clones. The series is described as follows: Metabolism of 9 in resistant iHCT116 clones. In kind it is cell-based. The note with it: parental and resistant clones. The source says:
The experiments described above are consistent with the model that both 1 and 9 are converted by NAMPT and NMNAT1 into their respective MN and AD metabolites. It remains unclear, however, which of these two metabolites is contributing to toxicity. To address this question, we measured 9 metabolism, 9-MN and 9-AD levels upon treatment of the resistant clones identified through forward genetics. […] Clones 5 and 7 were resistant to 9 but had normal NAMPT and NMINAT levels.
Prior to the experiment, cells were cultured in low-Nam DMEM for at least 1 passage (3 days) to deplete intracellular Nam. 15,000 cells were plated in a 96-well plate with 100 μL low-Nam media. At appropriate time points, 500 nM 1 or 9, or equal volume of vehicle (DMSO) were added using TECAN. 200 μL of acetonitrile with 0.1% formic acid were added to the assayed wells. For the 0-hour time point, compound or vehicle was added after the addition of acetonitrile and formic acid. Following incubation for 10 minutes at room temperature, samples were transferred to Eppendorf tubes and centrifuged at 20,000×g for 5 minutes. The supernatants were filtered through 0.2 μm PVDF filters and analyzed by LC-MS/TOF.

The subject of series [6] is NAMPT activity in S462 cells. Briefly: NMN levels in S462 cells (NAMPT activity in cells). It counts as cell-based, human. The note with it: regular DMEM, increasing concentrations of 9, compared with FK866.
In a further series the test system is IMPDH. The series is described as follows: Guanosine co-titration rescue. The following applies: guanosine co-titrated. In kind it is cell-based. The source says:
(§3) Given that vacor, 3-AP, and compound 21 are all metabolized to toxic, NAD-like derivatives through NAMPT and NMNAT, we hypothesized that their anti-cancer activity may also depend on SARM1. To test this, we compared the toxic effects of vacor, 3-AP, and 9 in either wild type cells or cells in which we used CRISPR to silence SARM1. […] These observations highlight that even though these different scaffolds are toxified through the same mechanism, the resulting metabolites may have different activities. We next co-titrated guanosine, which is known to rescue tiazofurin by bypassing IMPDH in guanylate synthesis, with each of the above small molecules. […] To test this hypothesis, we set up in vitro reactions with different combinations of 9, NAMPT and NMNAT. After incubation, metabolites were extracted, reconstituted in aqueous solution and then co-incubated with an established IMPDH2 enzyme assay.

The subject of a further series is SARM1. The series is described as follows: Cytotoxicity in SARM1-knockout versus wild type cells. The following applies: SARM1-knockout vs wild type. It counts as cell-based.
Excerpt: as §3

The subject of series [7] is Cas9-expressing HCT116 cells. The series is described as follows: Genome-wide pooled CRISPR/Cas9 knockout screen in HCT116. It counts as cell-based, human.
Excerpt: To gain insight into the mechanism of 9 and the relevance of Nam, we pursued two independent and complementary unbiased genetic approaches. First, we performed a genome-wide pooled Clustered Regularly Interspaced Short Palindromic Repeats (CRISPR) and CRISPR-associated protein 9 (Cas9) knockout screen to identify genes whose loss of function can enhance or suppress compound 9 activity. […] We cultured Cas9-expressing HCT116 cells in 10% FBS Nam-free DMEM and transduced with a lentiviral single guide RNA (sgRNA) library designed to silence 19,114 human genes.^11 These cells were treated with either vehicle (DMSO) or 9 for 30 days by which time the 9-treated cells had 7.6 fewer population doublings. Then, relative sgRNA sequences in the resulting cells were determined by massively parallel sequencing of PCR products amplified from genomic DNA, and the relative impact of each gene was derived from the sgRNA reads.
as §1

Another series has as its system iHCT116 cells. Briefly: iHCT116 cell viability with or without ectopic NMNAT1 expression. It counts as cell-based.
Excerpt: Second, we screened for resistance to 9 in iHCT116 cells, a system that uses inducible mutagenesis and forward genetics to find compound-resistant mutations and thus can reveal both loss of function and gain of function alleles that suppress activity. The iHCT116 system is a barcoded cell line in which we temporally control mutagenesis by the addition of indole acetic acid (IAA) mediated degradation of the mismatch repair protein MLH1.^12 MLN4924 is a small molecule toxin that we use as a positive control to verify that IAA treatment leads to increased mutations. By degrading MLH1 and increasing the overall mutation rate, IAA treatment increases the frequency of UBA3 mutations, leading to a higher rate of MLN4924 resistance. […] Having previously established a relationship between either NMNAT1 levels or NAMPT activity and compound resistance, we analyzed the levels of both enzymes in multiple resistant clones that harbored unique barcode sequences. […] To test whether reduced NMNAT1 levels in these clones contributed to resistance, we ectopically expressed NMNAT1 in either the parental cells or a representative resistant clone with low NMNAT1 expression.
as §2

“Also recorded” adds a separate entry of the source.

As to `O=C(Nc1cccnc1)c1cccs1` [Compound 1, N-(pyridin-3-yl)thiophene-2-carboxamide], the “toxicity to MPNST cell lines” value in [1] is reported as “selectively toxic”. Moreover, in series [2], the bioavailability result is on record as “bioavailable when dosed orally; also recorded: bioavailable in mice”. Besides, the “toxicity to mouse embryonic fibroblasts” value in [3] is on record as “nontoxic”. The “toxic effects in mice” value in [4] (mice bearing MPNST xenografts) was “without obvious toxic effects”. For the same compound, the “growth of xenograft tumors” value in [4] (mice, listed as compound 21) is “inhibited the growth; also recorded: reduces the growth of xenograft tumors”. In the series on primary mouse GBM cells, the anti-proliferative activity result is “hit”.
For `O=C(Nc1cccs1)c1cccnc1` [Compound 9, N-(Thiophen-2-yl)nicotinamide], the figures for the “increase in IC50 of 9 with FK866” value in series [5] (addition of 278 pM FK866) and in series [5] (addition of 833 pM FK866) were 2.9 fold and 15.4 fold, respectively. The “metabolism of 9 over time” value in the series on resistant iHCT116 clones was “metabolized over time”. In series [6], the “NMN levels in S462 cells” value was “did not reduce the levels of NMN to the same extent as FK866”. Moreover, the “guanosine rescue of toxicity” value in the series on IMPDH is recorded as “profound dose-dependent rescue”. The “sensitivity of SARM1-knockout cells” value with SARM1 is reported as “equally sensitive”. Also, the “enrichment of sgRNA reads for NAMPT” value in series [7] (9-treated cells, 30 days) came to 2.1 fold. Further, the “increase in sgRNA reads targeting NMNAT1” value in series [7] (9-treated cells, 30 days) was found to be 5.2 fold. In addition, in series [7] (9-treated versus vehicle, 30 days), the fewer population doublings is recorded as 7.6 population doublings. Further, the “rank of NAMPT among enriched genes” value in [7] (out of 19,114 genes) amounted to 101. For the same compound, the “decrease in IC50 on ectopic NMNAT1 expression” value in the series on iHCT116 cells (parental iHCT116) was 1.85 fold; in the series with iHCT116 cells (resistant clone), 9.58 fold. Moreover, the IC50 with iHCT116 cells (parental iHCT116, NMNAT1-expression) stood at 26.9 nM; in the series with iHCT116 cells (parental iHCT116, mock-infected) it was 49.7 nM; in the series with iHCT116 cells (representative resistant clone with low NMNAT1 expression), 574 nM; in the series with iHCT116 cells (resistant clone with ectopic NMNAT1 expression) it was 59.9 nM.
